According to US20060111418A1, “Blood-brain barrier disruption inhibitor” (Mitsubishi Pharma Corporation, priority 2003, published 2006):

How the values were obtained:
[1] = system: experimental autoimmune encephalomyelitis (EAE) model rats; experiment: EAE model rats: cytokines in spinal fluid, protein ratio and blood-brain barrier permeability; assay type: in vivo, rat; details: 3 mg/kg/day i.p., at 10, 11 and 12 days after sensitization, n=3, FIG. 7
Protocol: (§1) Experimental autoimmune encephalomyelitis (EAE) model rats were prepared by known methods (Int. J. Immunopharmacol, 7: 497-503, 1995). First, an encephalitogenic emulsion consisting of equivalent amounts of Guinea pig spinal cord, sterile phosphate buffered saline (PBS), and Freund's incomplete adjuvant was prepared. Thereafter, 10 mg/ml Mycobacterium tuberculosis H37Ra (Difco Laboratories) was added to the emulsion. Rats (inbred male Lewis rats; body weight: 200 to 250 g) were inoculated with 0.1 ml each of the thus obtained emulsion by subcutaneous administration of the emulsion to both plantae of the hind legs thereof, so as to prepare EAE model rats.
With regard to the control rats and EAE model rats, the concentrations of TNF-α and IL-1β in blood plasma and in spinal fluid, the protein ratio in spinal fluid/blood plasma, and blood-brain barrier permeability (the ratio of the concentration (Kp, app) of sodium fluorescein in brain/blood plasma, 20 minutes after administration by intravenous injection) were measured, in both a case where edaravone was administered or a case where edaravone was not administered. The terms “Kp” and “app” indicate apparent distribution ratios, which are values obtained by dividing the concentration of fluorescein in brain tissues by the concentration thereof in blood plasma after intravenous injection of the fluorescein (wherein the values are multiplied by 100, so as to be expressed on a percentage basis). It is to be noted that the specific gravity of brain tissues is expressed as 1 (because the unit of concentration is expressed as/g tissue weight). The amount of edaravone administered was set at 3 mg/kg/day (intraperitoneal administration). From 10 days after sensitization (administration of an antigen solution), edaravone was administered at intervals of 24 hours for 3 days (that is, 3 administrations at 10 days, 11 days, and 12 days after sensitization).

[2] = system: experimental autoimmune encephalomyelitis (EAE) model rats; experiment: EAE model rats: limb neuroparalysis score (Paul's clinical score); assay type: in vivo, rat; details: edaravone 3 mg/kg/day i.p., dexamethasone 1 mg/kg/day i.p., n=3, FIG. 8
Protocol: as §1
Moreover, limb neuroparalysis scores were evaluated in a group of EAE model rats to which no agents were administered (control), a group of EAE model rats to which dexamethasone was administered (1 mg/kg/day, intraperitoneal administration), and a group of EAE model rats to which edaravone was administered (3 mg/kg/day, intraperitoneal administration). The limb neuroparalysis scores were evaluated in accordance with the following standards.

[3] = reported in Kawai et al. 1997; Wu et al. 2000; cited from earlier work
[4] = system: blood-brain barrier coculture model (brain capillary endothelial cells and astrocytes); experiment: Blood-brain barrier coculture model, permeability measured as TEER; assay type: cell-based, bovine brain capillary endothelial cells; rat astrocytes; details: TNF-α (50 ng/ml) and/or IL-1β (5 ng/ml) added to the BBB coculture model; n=3; FIG. 2
Protocol: A blood-brain barrier coculture model was prepared by a method that had previously been reported (Eur. J. Pharm. Sci., 12: 215-222, 2001). Specifically, brain microcapillary endothelial cells and rat astrocytes were isolated, and the two types of cells were cultured on both sides of a Transwell™ filter, so as to prepare a coculture model. The preparation method of such a coculture model will be described below.
A brain capillary was isolated from a bovine brain. The meninx and white matter were eliminated therefrom, and the gray matter was recovered in DMEM (DMEM+S) to which 10% fetal calf serum had been added. Vascular fragments were prepared by homogenizing by hand, using a Wheaton homogenizer, and they were then captured on a 150-μm nylon mesh. The blood vessel was digested with collagenase, trypsin and DNAseI, in DMEM+S at 37° C. for 1 hour. […]
The brain capillary was inoculated into a plastic flask used for tissue culture, which had been covered with type IV collagen and fibronectin, and was allowed to adhere to a medium for 4 hours. Thereafter, the medium was exchanged with a growth medium (DMEM+S to which a 50% (v/v) astrocyte-conditioned medium and 125 μg/ml heparin had been added), and growing cells (large quantities of brain capillary endothelial cells and only small quantities of peritheliums) were cultured at 37° C. in 10% CO2. […]

Compound	increased concentration of IL-1β in spinal fluid [1]	increased concentration of TNF-α in spinal fluid [1]	increased protein ratio in spinal fluid/blood plasma [1]	limb neuroparalysis scores [2]	reactivity to active oxygen [3]	TEER (transcellular endothelial electrical resistance) [4]
CC1=NN(c2ccccc2)C(=O)C1 [edaravone, 3-methyl-1-phenyl-2-pyrazolin-5-one]	inhibited	inhibited	inhibited	improved	high reactivity	
TNF-α						significantly reduced
IL-1β: interleukin-1 beta, inflammatory cytokine						significantly reduced
